pIC50: −log10 of the molar value.

The target in this assay is T1, USP7, Active human recombinant protein (Homo sapiens, UniProt Q93009).
T1 construct: purchased CP Lot; 20200225001
T1 sequence (Q93009 whole entry): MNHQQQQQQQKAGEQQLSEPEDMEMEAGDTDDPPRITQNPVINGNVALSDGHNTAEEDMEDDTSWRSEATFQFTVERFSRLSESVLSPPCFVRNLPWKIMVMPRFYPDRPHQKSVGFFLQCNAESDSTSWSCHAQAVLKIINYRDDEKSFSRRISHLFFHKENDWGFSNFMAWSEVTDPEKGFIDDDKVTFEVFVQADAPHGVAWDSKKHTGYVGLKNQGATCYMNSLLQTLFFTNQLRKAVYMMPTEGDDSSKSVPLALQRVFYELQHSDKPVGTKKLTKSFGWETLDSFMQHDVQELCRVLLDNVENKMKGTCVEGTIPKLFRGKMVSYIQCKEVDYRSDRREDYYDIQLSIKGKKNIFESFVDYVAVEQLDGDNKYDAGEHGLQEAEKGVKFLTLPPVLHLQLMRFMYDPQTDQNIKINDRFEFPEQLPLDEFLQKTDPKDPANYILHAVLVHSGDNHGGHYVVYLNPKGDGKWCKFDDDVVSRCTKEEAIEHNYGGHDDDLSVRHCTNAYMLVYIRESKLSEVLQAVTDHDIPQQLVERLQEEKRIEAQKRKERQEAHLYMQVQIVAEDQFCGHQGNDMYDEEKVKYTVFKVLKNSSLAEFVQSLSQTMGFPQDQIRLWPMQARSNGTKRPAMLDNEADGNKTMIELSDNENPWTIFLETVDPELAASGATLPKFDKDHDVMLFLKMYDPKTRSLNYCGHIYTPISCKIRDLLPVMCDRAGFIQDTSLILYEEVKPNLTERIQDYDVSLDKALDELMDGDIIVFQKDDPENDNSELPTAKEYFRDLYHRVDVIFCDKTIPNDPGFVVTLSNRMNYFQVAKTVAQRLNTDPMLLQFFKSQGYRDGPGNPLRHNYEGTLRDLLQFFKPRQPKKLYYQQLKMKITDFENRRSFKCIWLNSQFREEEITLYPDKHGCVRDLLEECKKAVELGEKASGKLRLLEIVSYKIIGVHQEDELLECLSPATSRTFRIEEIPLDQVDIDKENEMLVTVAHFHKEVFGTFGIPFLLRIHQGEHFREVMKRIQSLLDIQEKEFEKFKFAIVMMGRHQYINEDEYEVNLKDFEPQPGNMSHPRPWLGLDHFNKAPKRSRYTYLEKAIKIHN
Briefly: USP7 assay (Ubiquitin-Rhodamine 110 enzymatic assay). The following applies: read-out: IC50. In kind it is biochemical. The method, then: Enzymatic Assays with Exemplary USP7 Irreversible Inhibitors
ND refers to not disclosed.
USP7, Active human recombinant protein (CP, Lot. 20200225001), Ubiquitin-Rhodamine 110 (Rh110) (BostonBiochem, Cat. No. U-555), DMSO (Sigma, Cat. N34869), DTT (Sangon Biotech, Cat. No. A620058-0005), […] Tris pH 8.0 (Sigma, Cat. No. T2694-1L), Tween-20 (Sigma, Cat. No. P2287-100ML), EDTA (Invitrogen, Cat. No. 15575020, BSA (Sigma, Cat. No. B2064-100G), 384-well assay plate (Corning, Cat. No. 3573), Echo Qualified 384-Well Polypropylene Microplate 2.0, Clear, Flat Bottom (LABCYTE, Cat. No. 001-14555).
Dilute the compounds to 400× of the final desired highest inhibitor concentration in reaction by 100% DMSO. For all compounds, transfer the compounds to one well in a 384-well Echo plate and serially dilute the compound by 3-fold dilution of 100% DMSO in the next well and so forth for a total of 10 concentrations by Precision. Add 30 μL of 100% DMSO to two empty wells for no compound control and no enzyme control in the same 384-well Echo plate. Make the plate as a source plate.
For USP7 assay, transfer 50 nL of each well from the source plate to a 384-well assay plate (OptiPlate TM-384 F black assay plates) by Echo 550 Liquid Handler.
Added appropriate amount of USP7 in 1× assay Buffer to prepare 2× enzyme solution (USP7 final concentration: 0.05 nM). Added appropriate amount of Ubiquitin-Rhodamine 110 in 1× assay Buffer to prepare 2× substrate solution (Ubiquitin-Rhodamine 110 final concentration: 190 nM). Added 10 μL of 2× enzyme solution to each reaction well of the 384-well assay plate, except for control wells without enzyme (add 10 μL of 1× Assay Buffer instead as for low control). […] Transferred 2× substrate solution to the assay plate. Added 10 μL of 2× substrate solution to each well of the 384-well assay plate to start reaction. Centrifuged at 1000 rpm for 1 min. Read the plate kinetically on SpectraMax Paradigm for 20 min with excitation at 485 nm and emission at 535 nm. Copied raw data (slope) from Reader to obtain inhibition values in Excel using equation (1): […]
Max signal was obtained from the action of Enzyme and Substrate. Min signal was obtained from the Substrate only. To fit the data in XLFit excel add-in version 5.4.0.8 to obtain IC50 values used equation (2): […]
Y is % inhibition and X is compound concentration.
Usually pIC50 stands for the negative decadic logarithm of the IC50, by convention in mol/L. Consider `CN(C)CCCOc1ccc2c(=O)n(CC3(O)CCN(C(=O)[C@H](CCCNC(=O)c4ccc5c(Cl)c(F)cnc5c4)Cc4ccccc4)CC3)cnc2c1` [Compound 131], for which the pIC50 is 6.00 to 7.00.

For `CN(C)CCC(=O)Nc1ccc2c(=O)n(CC3(O)CCN(C(=O)C(CCCNc4cccc(-c5cc(Cl)ccn5)c4)Cc4ccccc4)CC3)cnc2c1` (stereo not shown) [Compound 46], the pIC50 was less than 6.00.

Take `Cn1c(=O)n(CC2(O)CCN(C(=O)C(CCCNC(=O)c3ccc4c(Cl)ccnc4c3)Cc3ccccc3)CC2)c2cnccc21` (stereo not shown) [Compound 37, N-(4-benzyl-5-(4-hydroxy-4-((1-methyl-2-oxo-1H-imidazo[4,5-c]pyridin-3(2H)-yl)methyl)piperidin-1-yl)-5-oxopentyl)-4-chloroquinoline-7-carboxamide]: the pIC50 was less than 6.00.

In the case of `CN(C)CCC(=O)Nc1ccc2c(=O)n(CC3(O)CCN(C(=O)[C@@H](CCCNC(=O)c4ccc5c(Cl)c6c(nc5c4)CN(C)CC6)Cc4ccccc4)CC3)cnc2c1` [Compound 41], the pIC50 is greater than 7.70.

As for `CN1CCN(CCC(=O)Nc2ccc3c(=O)n(CC4(O)CCN(C(=O)[C@H](CCCNC(=O)c5ccc6c(Cl)c7c(nc6c5)CCCC7)Cc5ccccc5)CC4)cnc3c2)CC1`, the pIC50 was 6.00 to 7.00.

On to `CN(C)CCC(=O)Nc1ccc2c(=O)n(CC3(O)CCN(C(=O)N(CCCNC(=O)c4ccc5c(Cl)ccnc5c4)Cc4ccccc4)CC3)cnc2c1` [Compound 83], for which the pIC50 is less than 6.00.

In the case of `CCS(=O)(=O)Nc1ccccc1-c1ccc(C(=O)N2CCC(O)(Cn3cnc4cc(NC(=O)CCN5CCN(C)CC5)ccc4c3=O)CC2)cc1` [Compound 25], the negative logarithm of the IC50 (pIC50) is less than 6.00.

Consider `COc1cc(Cl)nc2cc(C(=O)NCCCC(Cc3ccccc3)C(=O)N3CCC(O)(Cn4cnc5cc(NC(=O)CCN(C)C)ccc5c4=O)CC3)ccc12` (stereo not shown) [Compound 67], for which the negative-log IC50 (pIC50) was less than 6.00.

On to `C=CS(=O)(=O)NCc1cccc(C(=O)N2CCC(O)(Cn3cnc4cc(NC(=O)CCN5CCN(C)CC5)ccc4c3=O)CC2)c1` [Compound 26, N-(3-((4-hydroxy-1-(3-(vinylsulfonamidomethyl)benzoyl)piperidin-4-yl)methyl)-4-oxo-3,4-dihydroquinazolin-7-yl)-3-(4-methylpiperazin-1-yl)propanamide], for which the pIC50 was less than 6.00.

For `C=CC(=O)Nc1ccc(C(F)(F)F)cc1N1CCC(C(=O)N2CCC(O)(Cn3cnc4cc(NC(=O)CCN5CCN(C)CC5)ccc4c3=O)CC2)C(c2ccccc2)C1` (stereo not shown) [Compound 104], the pIC50 was 6.00 to 7.00.

As to `N[C@@H](c1ccc(-n2ncc3c(=O)n(CC4(O)CCN(C(=O)C(CCCNC(=O)c5ccc6c(Cl)ccnc6c5)Cc5ccccc5)CC4)cnc32)cc1)C(F)(F)F` (stereo partly shown) [Compound 9, N-(5-(4-((1-(4-(1-amino-2,2,2-trifluoroethyl)phenyl)-4-oxo-1H-pyrazolo[3,4-d]pyrimidin-5(4H)-yl)methyl)-4-hydroxypiperidin-1-yl)-4-benzyl-5-oxopentyl)-4-chloroquinoline-7-carboxamide], the negative-log IC50 (pIC50) was 7.00 to 7.70.

Regarding `C=CC(=O)Nc1ccc(Cl)cc1N1CCC(C(=O)N2CCC(O)(Cn3cnc4cc(NC(=O)CCN5CCN(C)CC5)ccc4c3=O)CC2)C(c2ccccc2)C1` (stereo not shown) [Compound 103], the negative-log IC50 (pIC50) is 6.00 to 7.00.

Take `CN(C)CCCOc1ccc2c(=O)n(CC3(O)CCN(C(=O)[C@H](CCCNC(=O)c4ccc5c(Cl)c(C(F)F)cnc5c4)Cc4ccccc4)CC3)cnc2c1` [Compound 130]: the negative logarithm of the IC50 (pIC50) is greater than 7.70.

As for `CN1CCN(CCOc2ccc3ncn(CC4(O)CCN(C(=O)C(CCCNC(=O)c5ccc6c(Cl)ccnc6c5)Cc5ccccc5)CC4)c(=O)c3c2)CC1` (stereo not shown) [Compound 38, N-(4-benzyl-5-(4-hydroxy-4-((6-(2-(4-methylpiperazin-1-yl)ethoxy)-4-oxoquinazolin-3(4H)-yl)methyl)piperidin-1-yl)-5-oxopentyl)-4-chloroquinoline-7-carboxamide], the pIC50 is less than 6.00.

With `CN1CCN(CCC(=O)Nc2ccc3c(=O)n(CC4(O)CCN(C(=O)[C@H](CCCNC(=O)c5ccc6c(Cl)cc(-c7ccc(F)cc7)nc6c5)Cc5ccccc5)CC4)cnc3c2)CC1` [Compound 4, (R)—N-(4-benzyl-5-(4-hydroxy-4-((7-(3-(4-methylpiperazin-1-yl)propanamido)-4-oxoquinazolin-3(4H)-yl)methyl)piperidin-1-yl)-5-oxopentyl)-4-chloro-2-(4-fluorophenyl)quinoline-7-carboxamide], the negative-log IC50 (pIC50) is less than 6.00.

Consider `CN1CCN(CCC(=O)Nc2ccc3c(=O)n(CC4(O)CCN(C(=O)C(CCCNC(=O)c5ccc6c(Cl)c7c(nc6c5)CCCC7)Cc5ccccc5)CC4)cnc3c2)CC1` (stereo not shown), for which the negative-log IC50 (pIC50) was greater than 7.70.

`CN(C)CCC(=O)Nc1ccc2c(=O)n(CC3(O)CCN(C(=O)[C@@]4(Cc5ccccc5)CCN(CCNC(=O)c5ccc6c(Cl)ccnc6c5)C4)CC3)cnc2c1` [Compound 57]: the pIC50 was less than 6.00.

Turning to `CN(C)CCOc1cc(F)c2c(=O)n(CC3(O)CCN(C(=O)[C@H](CCCNC(=O)c4ccc5c(Cl)cc(C6CC6)nc5c4)Cc4ccccc4)CC3)cnc2c1` [Compound 118], the pIC50 is 6.00 to 7.00.

On to `Cc1cc(Cl)n2cc(C(=O)NCCCC(Cc3ccccc3)C(=O)N3CCC(O)(Cn4cnc5cc(NC(=O)CCN(C)C)ccc5c4=O)CC3)cc2n1` (stereo not shown) [Compound 45, N-(4-benzyl-5-(4-((7-(3-(dimethylamino)propanamido)-4-oxoquinazolin-3(4H)-yl)methyl)-4-hydroxypiperidin-1-yl)-5-oxopentyl)-4-chloro-2-methylpyrrolo[1,2-a]pyrimidine-7-carboxamide], for which the pIC50 is less than 6.00.

Take `O=C(NCCN1CC[C@@H](C(=O)N2CCC(O)(Cn3cnc4cc(-c5nc(CN6CCNCC6)co5)ccc4c3=O)CC2)[C@H](c2ccccc2)C1)c1ccc2c(Cl)ccnc2c1` [Compound 144]: the negative-log IC50 (pIC50) is 7.00 to 7.70.

As for `CN(C)CCCOc1ccc2c(=O)n(CC3(O)CCN(C(=O)[C@@H](CCCNC(=O)c4ccc5c(Cl)c(CO)cnc5c4)Cc4ccccc4)CC3)cnc2c1`, the pIC50 was greater than 7.70.

For the compound `O=C(NCCN1CC[C@@H](C(=O)N2CCC(O)(Cn3cnc4c(-c5ccc(Br)cc5)nsc4c3=O)CC2)[C@H](c2ccccc2)C1)c1ccc2c(Cl)ccnc2c1` [Compound 98], the pIC50 was 6.00 to 7.00.

Consider `CN(C)CCC(=O)Nc1ccc2c(=O)n(CC3(O)CCN(C(=O)C(CCCNC(=O)c4ccc5c(Cl)c6c(nc5c4)CCOC6)Cc4ccccc4)CC3)cnc2c1` (stereo not shown) [Compound 90], for which the negative-log IC50 (pIC50) is 7.00 to 7.70.

Consider `CN(C)CCC(=O)Nc1ccc2c(=O)n(CC3(O)CCN(C(=O)C(CCCNC(=O)c4cc5c(Cl)ccnc5[nH]4)Cc4ccccc4)CC3)cnc2c1` (stereo not shown) [Compound 48, N-(4-benzyl-5-(4-((7-(3-(dimethylamino)propanamido)-4-oxoquinazolin-3(4H)-yl)methyl)-4-hydroxypiperidin-1-yl)-5-oxopentyl)-4-chloro-1H-pyrrolo[2,3-b]pyridine-2-carboxamide], for which the pIC50 is less than 6.00.

Regarding `CN(C)CC(=O)Nc1ccc2c(=O)n(CC3(O)CCN(C(=O)[C@H]4CC[C@@H](NC(=O)c5ccc6c(Cl)ccnc6c5)CC4)CC3)cnc2c1` [Compound 34, 4-chloro-N-((1s,4s)-4-(4-((7-(2-(dimethylamino)acetamido)-4-oxoquinazolin-3(4H)-yl)methyl)-4-hydroxypiperidine-1-carbonyl)cyclohexyl)quinoline-7-carboxamide], the negative logarithm of the IC50 (pIC50) is less than 6.00.

As for `CN(C)CCCNc1ccc2c(=O)n(CC3(O)CCN(C(=O)[C@H](CCCNC(=O)c4ccc5c(Cl)cc(C6CC6)nc5c4)Cc4ccccc4)CC3)cnc2c1` [Compound 136], the pIC50 is greater than 7.70.

For the compound `CN(C)CCC(=O)Nc1ccc2c(=O)n(CC3(O)CCN(C(=O)c4cnn(CCNC(=O)c5ccc6c(Cl)ccnc6c5)c4Cc4ccccc4)CC3)cnc2c1` [Compound 53, N-(2-(5-benzyl-4-(4-((7-(3-(dimethylamino)propanamido)-4-oxoquinazolin-3(4H)-yl)methyl)-4-hydroxypiperidine-1-carbonyl)-1H-pyrazol-1-yl)ethyl)-4-chloroquinoline-7-carboxamide], the pIC50 is 6.00 to 7.00.

For the compound `CN1CCN(CCC(=O)Nc2ccc3c(=O)n(CC4(O)CCN(C(=O)C(CCCNC(=O)c5ccc6c(Cl)cc(-c7cccc(C#N)c7)nc6c5)Cc5ccccc5)CC4)cnc3c2)CC1` (stereo not shown) [Compound 16, N-(4-benzyl-5-(4-hydroxy-4-((7-(3-(4-methylpiperazin-1-yl)propanamido)-4-oxoquinazolin-3(4H)-yl)methyl)piperidin-1-yl)-5-oxopentyl)-4-chloro-2-(3-cyanophenyl)quinoline-7-carboxamide], the negative logarithm of the IC50 (pIC50) is 6.00 to 7.00.

Values taken from US20240376076A1, “INHIBITORS TARGETING UBIQUITIN SPECIFIC PROTEASE 7 (USP7)” (Dana-Farber Cancer Institute, Inc., priority 2021, published 2024).
